Results: patent US20190224279A1, “PHARMACEUTICAL ASSOCIATION COMPRISING A GROWTH FACTOR RECEPTOR AGONIST CONJUGATED TO A BIOACTIVE CARRIER FOR CONVERTING A NEOPLASTIC CELL INTO A NON-NEOPLASTIC CELL AND USES THEREOF” (HISTIDE AG, priority 2015, published 2019)

How the values were obtained:
[1] = tested on: Smad1/5/8 signaling pathway; assay: Growth factor receptor activation: quantification of western blots of phospho-Smad1/5/8; type: cell-based; conditions: human osteosarcoma cells MG63; 400 ng/mL GFR-binding compound; Table 4
Experimental: After 24 hours of culture, cells were permeabilized (10% SDS, 25 mM NaCl, 10 nM pepstatin and 10 nM leupeptin in distilled water and loading buffer), boiled for 10 minutes and resolved by reducing PAGE (Invitrogen). Proteins were transferred onto nitrocellulose, blocked, and labeled with HRP-conjugated antibodies (Invitrogen). Integrin αv, α5, α3, α4, β1, β, β5 and […] were blotted by treating the nitrocellulose with monoclonal anti-integrin (extracellular domain) αv, α5, α3, α4, β1, β3, β5 and β6 antibodies (Santa Cruz Biotechnology). Phosphor-Smad1/5/8 was blotted by treating the nitrocellulose with monoclonal anti-p-Smad1/5/8 (Santa Cruz Biotechnology). For all of the experiments the western blot was performed in triplicate, along with an additional blot for actin and coomassie blue staining to ensure constant protein load among samples.

[2] = tested on: human osteosarcoma cells, MG63; assay: Tumor cell recoding via quantification of pRB (immunofluorescence, ImageJ); type: cell-based
Experimental: The cells were first fixed for 20 min with 4% paraformaldehyde/PBS at 4° C. After fixation, the cells were permeabilized in PBS containing 1% Triton X-100 for 15 min. Protein immunofluorescent visualization was performed by first treating the cells with 1% (v/v) specific monoclonal antibodies for 1 hour at 37° C. Then the samples were incubated with Alexa Fluor® 568 or 647 (F(ab′)2 fragment of IgG(H+L)) during 30 min at room temperature. The cell nuclei were counterstained in 20 ng/mL DAPI for 10 min at room temperature.
For this type of quantification the freeware image analysis ImageJ® software was used. The raw image was first converted to an 8-bit file, and then the unsharp mask feature was used (settings 1:0.2) to remove the image background (rolling ball radius 10). After smoothing, the resulting image, which appears similar to the original photomicrograph but with minimal background, was then converted to a binary image by setting a threshold. Threshold values were determined empirically by selecting a setting, which gave the most accurate binary image for a subset of randomly selected photomicrographs. The cell area was determined by manual delineation on raw fluorescent images. Total contact area and mean contact area per cell were calculated by “analyse particules” in ImageJ®. A minimum of 50 cells per condition were analyzed.
Neoplastic cells (in this example osteosarcoma cells) were cultured on pharmaceutical associations comprising PET as a bioactive carrier and one of GFR-binding compounds of SEQ ID NO: 11 to 14, 24 to 26 and 51 to 63. A rapid (24 hours) decrease of the tumor markers was observed (FIG. 7). The adhesion checkpoint then activates the tumor suppressor proteins p53 and pRB. […]

Sequence | p-Smad1/5/8 (%) [1] [%] | pRB (%) ([2]; Table 4) | pRB (%) ([2]; Table 5)
APTKLEPLPMVYYEERRNVIEQLSNNMVVR (Non-cyclic GFR-binding peptide) [SEQ ID NO: 86] | 34 | 11 | 11
APTKLEPLTIVYYDDSSNVIEQLSNNMVVR (Non-cyclic GFR-binding peptide) [SEQ ID NO: 88] | 32 | 21 | 21
APTQLSAISTLYLEIVRKKPLKNYQEMEDH (Non-cyclic GFR-binding peptide) [SEQ ID NO: 78] | 58 | 20 | 20
APTQLSAISTLYLEIVRKKPLKNYQFLQHNK (Non-cyclic GFR-binding peptide) [SEQ ID NO: 77] | 52 | 14 | 14
ASASPSSVPQDLEPLTILYYVGRTPKVEQLSNMV (Non-cyclic GFR-binding peptide) [SEQ ID NO: 65] | 38 | 18 | 18
ASASPSSVPQDLEPLTILYYVGRTPKVEQLSNMVEDH (Non-cyclic GFR-binding peptide) [SEQ ID NO: 80] | 34 | 17 | 17
NDEGLECVPTEERPVQVRKIRIKPHQGQKKATVFLQHNK [SEQ ID NO: 64] (Non-cyclic GFR-binding peptide) | 36 | 14 | 14
NDEGLECVPTEERPVQVRKIRIKPHQGQKKATVFLQHNK [SEQ ID NO: 79] (Non-cyclic GFR-binding peptide) | 27 | 21 | 21
RNVQCRPTQLEPLPIVYYEIVRKKPEQLSNTLE (Non-cyclic GFR-binding peptide) [SEQ ID NO: 95] | 29 | 8 | 8
RNVQCRPTQLEPLPIVYYEIVRKKPEQLSNTLEDHLA [SEQ ID NO: 66] (Non-cyclic GFR-binding peptide) | 38 | 21 | 21
RNVQCRPTQLEPLPIVYYEIVRKKPEQLSNTLEDHLA [SEQ ID NO: 81] (Non-cyclic GFR-binding peptide) | 41 | 19 | 19
SRVHHNAISTLYFDESSNVILKKYRGMSVVE (Non-cyclic GFR-binding peptide) [SEQ ID NO: 91] | 56 | 9 | 9
TPTKMSPINMLYFNEKNNIIYGKIPGM (Non-cyclic GFR-binding peptide) [SEQ ID NO: 94] | 41 | 20 | 20
TPTKMSPINMLYFNEKNNIIYGKIPGMVVD (Non-cyclic GFR-binding peptide) [SEQ ID NO: 76] | 55 | 15 | 15
TQVQLEPLTLLYYDENEKVIEQLSNDMVVE (Non-cyclic GFR-binding peptide) [SEQ ID NO: 71] | 47 | 19 | 19
VPARLSPISILYIDAANNVVYKQYEDM (Non-cyclic GFR-binding peptide) [SEQ ID NO: 74] | 51 | 10 | 10
VPARLSPISILYIDAANNVVYKQYEDMVKS (Non-cyclic GFR-binding peptide) [SEQ ID NO: 93] | 44 | 8 | 8

Sequence | p-Smad1/5/8 (%) [1] [%] | pRB (%) ([2]; Table 4) | pRB (%) ([2]; Table 5)
VPARLSPISILYIDEMGVPTYKQYEEGMSVAE (Non-cyclic GFR-binding peptide) [SEQ ID NO: 83] | 33 | 9 | 9
VPEKMSSLSILFFDENKNAALKVYPNMTVE (Non-cyclic GFR-binding peptide) [SEQ ID NO: 92] | 52 | 8 | 8
VPEKMSSLSILFFDENKNVVLKVYPNMAVS (Non-cyclic GFR-binding peptide) [SEQ ID NO: 73] | 44 | 17 | 17
VPQALNAISTLYFDDSSNVILKKYRNMAVS (Non-cyclic GFR-binding peptide) [SEQ ID NO: 72] | 48 | 11 | 11
VPQALSPINMLYFNEKNQIIYGKIPFLQHNK (Non-cyclic GFR-binding peptide) [SEQ ID NO: 75] | 54 | 8 | 8
VPQALSPISILFIRLKPHQGHLGEMSNMVVR (Non-cyclic GFR-binding peptide) [SEQ ID NO: 85] | 26 | 24 | 24
VPQALSPISILFIVGRKPKVYKQYEMIVERS (Non-cyclic GFR-binding peptide) [SEQ ID NO: 89] | 41 | 18 | 18
VPQALSPISILYIDDMGVPTYKQYEEGMSVAE (Non-cyclic GFR-binding peptide) [SEQ ID NO: 68] | 39 | 7 | 7
VPTEESNITTQIMRIKPHQGQHIGEMSFLQH [SEQ ID NO: 69] (Non-cyclic GFR-binding peptide) | 32 | 23 | 23
VPTEESNITTQIMRIKPHQGQHIGEMSFLQH [SEQ ID NO: 84] (Non-cyclic GFR-binding peptide) | 22 | 10 | 10
VPTELSPISILFIRIKPHQGHLGEMSAAVVE (Non-cyclic GFR-binding peptide) [SEQ ID NO: 70] | 30 | 24 | 24
VPTELSPISILFIVGGKPKVYKQYENMVVE (Non-cyclic GFR-binding peptide) [SEQ ID NO: 90] | 36 | 17 | 17
VPTHHSAISMLYLELGGDKPLENYQFLQ (Non-cyclic GFR-binding peptide) [SEQ ID NO: 97] | 46 | 9 | 9
VPTHHSAISTLYLELAGEKPLKNYQFLQHNK (Non-cyclic GFR-binding peptide) [SEQ ID NO: 96] | 47 | 7 | 7
VPTKLSAISTLYLDLAREEPLKNYQEMVVE (Non-cyclic GFR-binding peptide) [SEQ ID NO: 87] | 38 | 16 | 16
VPTKLSPISILYIDDMGVPTYKQYEEGMSVAE (Non-cyclic GFR-binding peptide) [SEQ ID NO: 67] | 40 | 9 | 9
VPTKLSPISILYIDKMGVPTYKQYEEGMSVAE (Non-cyclic GFR-binding peptide) [SEQ ID NO: 82] | 35 | 16 | 16
